The values that follow come from US20230144869A1, “METHODS FOR TREATING CYTOKINE RELEASE SYNDROME” (UNIVERSITY HEALTH NETWORK, priority 2020, published 2023).

Data set [1] has as its system CD4+ and CD8+ T-cells in peripheral blood mononuclear cells (PBMCs). Description: T-cell activation in stimulated PBMCs (activation markers by flow cytometry). To be noted: PBMCs stimulated with anti-CD3 and anti-CD28 antibodies, PHA or SEB; 24 or 48 hours; FIG. 1A. The data set is classed as cell-based, human.
Data set [2] concerns anti-CD3 antibody and anti-CD28 antibody-, PHA- or SEB-activated lymphocytes. Description: Proliferation of activated lymphocytes in PBMCs (3H-thymidine). The class given is cell-based, human. Particulars: PBMCs stimulated with anti-CD3 and anti-CD28 antibodies, 24 hours plus 18 hours labeling, FIG. 1B. As for the experimental part:
PBMCs (2×10^5 cells) were treated with either Compound 1 or DMSO, and anti-CD3 and anti-CD28 antibodies, PHA or SEB in RPMI 1640 medium containing 10% heat-inactivated FBS, 2-mercaptoethanol and penicillin-streptomycin antibiotics at 37° C., 5% CO2, and 100% humidity. After 24 hours, the cells were labeled with ^3H-thymidine for an additional 18 hours to measure lymphocyte proliferation by liquid scintillation counting. Proliferation of anti-CD3 antibody and anti-CD28 antibody-, PHA- or SEB-activated lymphocytes was inhibited by Compound 1 treatment, as shown in FIG. 1B. Similar data were obtained at 48 hours (data not shown). Data are representative of several independent experiments utilizing different PBMC samples, and are reported as the mean counts per minute (CPM)±standard deviation (SD) of duplicate wells.

Data set [3] has as its system PBMCs (effector) with irradiated allogenic PBMCs (stimulator). The data set is described as follows: Allogenic mixed lymphocyte reaction (MLR). To be noted: 4 days plus 18 hours labeling; FIG. 2A-2C. The class given is cell-based, human. The method, then: The allogenic MLR is a cell proliferation assay where one population of lymphocytes (effector cells) is stimulated to proliferate by another genetically distinct population of lymphocytes (stimulator cells), which have been rendered non-proliferative. PBMCs [2×10^5 cells, effector (E) population] and irradiated (IR) allogenic PBMCs [1×10^5 cells, stimulator (S) population] were treated with either Compound 1 or DMSO in RPMI 1640 medium containing 10% heat-inactivated FBS, 2-mercaptoethanol and penicillin-streptomycin antibiotics at 37° C., 5% CO2, and 100% humidity. After 4 days, the cells were labeled with ^3H-thymidine for an additional 18 hours to measure lymphocyte proliferation by liquid scintillation counting. […] Multiple independent experiments utilizing different effector/stimulator pairs were conducted. Data are reported as the mean counts per minute (CPM)±standard deviation (SD) of triplicate wells.

In data set [4] the test system is anti-CD3 antibody and anti-CD28 antibody-activated PBMCs. Description: Cytokine secretion by anti-CD3 and anti-CD28 antibody-activated PBMCs (LEGENDplex Human Th Cytokine Panel). The class given is cell-based. To be noted: culture supernatants after 24 hours; fold change relative to DMSO control; FIG. 3A. The method, then: PBMCs (2×10^5 cells) were treated with either Compound 1 or DMSO, and anti-CD3 and anti-CD28 antibodies in RPMI 1640 medium containing 10% heat-inactivated FBS, 2-mercaptoethanol and penicillin-streptomycin antibiotics at 37° C., 5% CO2, and 100% humidity. After 24 hours, cytokine levels in culture supernatants were determined by a LEGENDplex Human Th Cytokine Panel by manufacturer's instructions (BioLegend, Inc.).
In the presence of Compound 1, the level of all measured cytokines decreased, including IL-2, IL-6, IFNγ and TNFα. Data are representative of several independent experiments utilizing different human PBMC samples, and are reported as the fold change for Compound 1 relative to the DMSO control of duplicate wells.

For data set [5], the system named is mouse primary cancer-associated fibroblasts (CAFs). The data set is described as follows: TGFβ production by primary cancer-associated fibroblasts (CAFs). The class given is cell-based. To be noted: after 3 days; fold change relative to DMSO control; FIG. 3B. From the text: Cancer-associated fibroblasts (CAFs) are used as a model system to investigate TGFβ cytokine production. C57BL/6 mice were obtained from The Jackson Laboratory. The Institutional Animal Care and Use Committee of the University Health Network approved all animal procedures. CAFs were obtained from C57BL/6 mice by growing MC38-CEA mouse colon cancer xenografts subcutaneously in a conventional manner. When tumors reached a size of approximately 1000 mm^3 they were excised and disaggregated, and CAFs were isolated with a Tumor-Associated Fibroblast Isolation Kit (Miltenyi Biotec). Isolated CAFs were grown with a MesenCult Expansion Kit (STEMCELL Technologies, Inc.) at 37° C., 5% CO2, 3% O2, and 100% relative humidity. CAFs were seeded into a 96-well plate in DMEM medium containing 10% FBS 24 hours before treatment with either Compound 1 or DMSO. After 3 days, latent TGFβ was determined by a Mouse Latent TGFβ Legend Max kit by manufacturer's instructions (BioLegend, Inc.). Compound 1 inhibited TGFβ production by mouse primary CAFs. Data are representative of several independent experiments, and are reported as the fold change for Compound 1 relative to the DMSO control of duplicate wells.

Data set [6] has as its system resting CD4+ and CD8+ T-cells. Description: Viability of resting T-cells (annexin V / 7-AAD flow cytometry). The data set is classed as cell-based, human. Particulars: 48 hours; except at high concentrations (30 μM); FIG. 4. The method, then:
(§1) CD3^+ T-cells and CD14^+ monocytes were purified from PBMCs using Human CD3 MicroBeads and Human CD14 MicroBeads, respectively (Miltenyi Biotech). Purified CD3^+ T-cells (2×10^5 cells) or CD14^+ monocytes (2×10^5 cells) were treated with either Compound 1 or DMSO in RPMI 1640 medium containing 10% heat-inactivated FBS, 2-mercaptoethanol and penicillin-streptomycin antibiotics at 37° C., 5% CO2, and 100% humidity. After 48 hours, the cells were stained with antibodies specific for the indicated cell subsets, and annexin V and 7-aminoactinomycin D (7-AAD) cell viability dyes for measurement by flow cytometry. […] Similar data were obtained at 24 and 72 hours (data not shown). Data are representative of several independent experiments utilizing different human PBMC samples, and are reported as the A decrease in percent viability of duplicate wells [mean±standard deviation (SD)].
Background: In flow cytometry, cells or beads pass a laser one at a time.

A further data set has as its system resting CD14+ monocytes. Description: Viability of resting monocytes (annexin V / 7-AAD flow cytometry). The data set is classed as cell-based, human. Particulars: 48 hours; FIG. 4. The method, then:
as §1

A further data set concerns unstimulated whole blood. The data set is described as follows: Whole blood cytokine release assay (CRA). The class given is cell-based. To be noted: whole blood diluted 4:1 with RPMI 1640, 4 hours; LEGENDplex Human Th Cytokine Panel. As for the experimental part:
The potential for cytokine release syndrome in patients treated with Compound 1 was evaluated using a whole blood cytokine release assay (CRA). Fresh whole blood from a healthy human donor was diluted 4:1 with RPMI 1640 medium and cultured for 4 hours in the presence of Compound 1 or DMSO. Lipopolysaccharide (LPS) (1 μg/mL) was used as a positive control. Cytokine levels in serum samples were determined by a LEGENDplex Human Th Cytokine Panel by manufacturer's instructions (BioLegend, Inc.). […] Data listed in Table 1 below are representative of several independent experiments, and are reported as the mean fold change for Compound 1 relative to the DMSO control of duplicate wells.

Data set [7] has as its system C57BL/6 mice immunized with MOG35-55 peptide. Description: Experimental autoimmune encephalomyelitis (EAE) model. Particulars: 50 mg/kg PO QD during EAE induction; FIG. 5. The data set is classed as in vivo, mouse.

Regarding `CN1CCN(c2ccc3nc(-c4c(N)c5ccsc5[nH]c4=O)[nH]c3c2)CC1` [Compound 1], the “CD4+ and CD8+ T-cell activation (cell surface expression of CD25 and CD69, shedding of CD62L)” value in [1] is “titratable inhibition”. The “Lymphocyte proliferation (3H-thymidine, CPM)” value in data set [2] is listed as “inhibited”. Also, the “Lymphocyte proliferation in allogenic MLR (3H-thymidine, CPM)” value in data set [3] is “dose-dependent inhibition”. Besides, the “Level of all measured cytokines, including IL-2, IL-6, IFNγ and TNFα” value in data set [4] was “decreased”. Moreover, the “TGFβ production (latent TGFβ)” value in data set [5] is “inhibited”. Further, in data set [6], the “Viability of resting CD4+ and CD8+ T-cells” value is listed as “no significant effect”. In addition, the “Viability of resting CD14+ monocytes” value in the data set with resting CD14+ monocytes is recorded as “dose-dependent loss of viability”. In addition, in the data set on unstimulated whole blood, the “Induction of cytokine levels predictive of cytokine release syndrome in vivo” value is reported as “did not induce”.

Consider `CN1CCN(c2ccc3nc(-c4c(N)c5sccc5[nH]c4=O)[nH]c3c2)CC1` [Compound 2], for which the “EAE disease progression (clinical score)” value in data set [7] is “blocks EAE disease progression”.
